Test results taken from patent US9375450B2, “Vaginal tissue rejuvenation compositions and methods” (priority 2011, dated 2016).

Assays:
[1] = test system: primary vaginal smooth muscle cells; assay: Sircol collagen assay (cell culture surface deposited collagen); format: cell-based, human; details: 48 hours of treatment, mean±SD
Description: After removal of the uterus, full-thickness samples of the anterior vaginal wall were obtained from the vaginal cuff at the anterior midline portion under sterile condition from four women without POP. Specimens were preserved in cold DMEM/F12 (Invitrogen, Carlsbad, Calif.) supplemented with 10% FBS, 1 mM glutamine, 0.075% Na2HCO3 and 100 ug/ml penicillin-streptomycin. After a maximum time of 4 hours from tissue harvesting the tissue was mechanically minced in cold cultured media and the fragments were washed 3 times in PBS and were plated onto fibronectin coated plastic dishes (Thermo Fischer Scientific, Rochester, N.Y.). After the initial outgrowth, clones with a morphology resembling the smooth muscle phenotype were patch cloned and propagated in culture. For cell characterization a 5000 cell/well fibronectin coated 8-well chamber slide was plated. Once cell confluence reached 80% the cells were washed twice with PBS and fixed in 4% PFA for 30 min at 37° C. To verify the intracytoplasmic distribution of F-actin fibers 4% PFA fixed cells were exposed to a permeabilizing solution of Tryton X100 0.1% and Rhodamine Phalloidin for 45 min at 37° C. Slides were then treated with mounting media (Vectashield, Vector Laboratories, Burlingame, Calif.) containing DAPI for nucleic acid staining and image acquisition was performed in glycerol immersion by confocal microscopy. In addition, the 8-well chamber slides were used to carry out the immunocytochemical staining. After blockage of endogenous peroxidase activity with a solution of hydrogen peroxide and methanol, slides were sequentially treated with the primary mouse antibody, biotinylated anti-mouse immunoglobulin, and Streptavidin-biotin-peroxidase complex (LSAB™+/HRP kit, Dako, Carpinteria, Calif.). Diaminobenzidine was used as a chromogen in the presence of hydrogen peroxide. Slides were then counterstained with hematoxylin. All reactions were carried out at room temperature (22° C.). To identify the SMC, anti-smooth muscle actin antibodies were used (monoclonal mouse, 1:250, 30 min incubation, clone 1A4, catalog #0851 Dako, Carpinteria, Calif.). Caldesmon expression was studied with a monoclonal mouse antibody, 1:100, 30 min incubation, (clone h-CD catalog #M3557 Dako, Carpinteria, Calif.). An antigen retrieval step was used for caldesmon using citrate buffer and a steamer for 30 min. As a negative control normal mouse serum was substituted for the antibody.
The Sircol Assay (Biocolor Ltd., UK) is a dye-binding method designed for the analysis of acid and pepsin-soluble collagens. […]
The amount of collagen was determined by SIRCOL collagen assay according to manufacturer's instructions. […] Extracts were incubated with Sirius red dye and absorbance was determined at 555 nm with a spectrophotometer.

[2] = test system: rat vaginal Collagen I, Collagen III, Collagen V protein; assay: Immunofluorescence of vaginal collagen protein expression after 2 weeks vaginal suppositories; format: in vivo; details: OVX rats, vaginal suppositories 2 weeks, mean±SD; for ratio of vaginal Collagen I to Collagen III protein expression: placebo 1.16±0.2; for ratio of vaginal Collagen I to Collagen V protein expression: placebo 1.28±0.3
Description: Ten to 12-weeks old female ovariectomized (OVX) Sprague-Dawley rats were utilized for the experiments. The animals were acclimatized to the environmental conditions before starting the experiment. The animals were housed individually and were allowed free access to water and rodent food. […] The suppositories were prepared according to the fusion method, using a polypeg suppository base ([…]., USA). […] Using a microwave, the suppository base was melted in a small beaker for 3 min and then transferred and kept into a water bath at a temperature of 55° C. The proper amount of above reagent was added to the liquefied base and meticulously crushed with a smooth rounded-end glass rod for about 20 min to make the solution to be even and clear. A pipette tip was used to suck some amount of solution and push it into a plastic tube with a diameter of 3.5 mm, and the tube was immediately left on the flat surface of an ice bucket. The suppository turned to white in color when it was solid. The moulded suppository was then pushed out of the tube using a round rod. […] After 30 min of cooling at room temperature, the suppositories were stored at 4° C. in a closed chamber until use. They were left to reach room temperature before use. The day after the last treatment the rats were overnight fasted and then sacrificed. Macroscopic measurement (genital hiatus, vaginal length) were taken and the vagina was dissected out carefully to avoid any injury to the vagina. The mid section of the vagina was utilized for histology (H and E stain, Masson's trichrome stain) and immunofluorescence and the rest of the vagina was used for RNA extraction and RT-PCR. Samples were incubated with three different antibodies, collagen I, III and anti-actin or collagen I and V and anti-actin. Frozen tissues samples were cut into sections of 6 μm and fixed for 10 min with acetone, followed by five washes of phosphate-buffered saline (PBS). […] After that, sections were incubated with the secondary antibody for one hour in the dark, at room temperature, followed by five washes of PBS. […] Alexa Fluor 405 Goat Anti-Mouse IgG (1:400) (Invitrogen); Cy3-AffiniPure Goat Anti-Mouse IgM (1:400) (Jackson ImmunoResearch Laboratories, West Grove, Pa.); Alexa Fluor 647 (1;200) phalloidin (Invitrogen). […] Four images were obtained per section. Images were capture with an Orca II-ERG 12 bitt CCD camera in a Zeiss Apotome microscope with a 20× objective. The data was analyzed using Matamorph version 7.7.4 software. Results are represented as mean pixel intensity ratios per square area.

SMILES: O.O.O.O.O.O.O.O=S(=O)([O-])[O-].[Zn+2] [zinc sulfate, zinc sulfate heptahydrate]
- cell culture surface deposited collagen production normalized to cell number (% of control) ([1]; zinc sulfate 10 μM): 139.3±49 % of control
- cell culture surface deposited collagen production normalized to cell number (% of control) ([1]; zinc sulfate 20 μM): 129.6±27 % of control
- ratio of vaginal Collagen I to Collagen III protein expression [2]: 1.37±0.1 relative units
- ratio of vaginal Collagen I to Collagen V protein expression [2]: 1.50±0.4 relative units

SMILES: Cc1cc(SCc2sc(-c3ccc(C(F)(F)F)cc3)nc2C)ccc1OCC(=O)O [GW501516, 2-[2-methyl-4-([4-methyl-2-[4-(trifluoromethyl)phenyl)-1,3-thiazol-5-yl]methylsulfanyl]phenoxy]acetic acid]
- cell culture surface deposited collagen production normalized to cell number (% of control) ([1]; GW 10 nM): 151.0±22 % of control
- cell culture surface deposited collagen production normalized to cell number (% of control) ([1]; GW 100 nM): 118.2±19 % of control
- ratio of vaginal Collagen I to Collagen III protein expression [2]: 1.20±0.1 relative units
- ratio of vaginal Collagen I to Collagen V protein expression [2]: 1.20±0.4 relative units
